The target in assay [1] is T1, PDH (photoreceptor retinol dehydrogenase, isoform C; PDHc) (Drosophila melanogaster, UniProt B7Z062).
T1 sequence (B7Z062 2-261): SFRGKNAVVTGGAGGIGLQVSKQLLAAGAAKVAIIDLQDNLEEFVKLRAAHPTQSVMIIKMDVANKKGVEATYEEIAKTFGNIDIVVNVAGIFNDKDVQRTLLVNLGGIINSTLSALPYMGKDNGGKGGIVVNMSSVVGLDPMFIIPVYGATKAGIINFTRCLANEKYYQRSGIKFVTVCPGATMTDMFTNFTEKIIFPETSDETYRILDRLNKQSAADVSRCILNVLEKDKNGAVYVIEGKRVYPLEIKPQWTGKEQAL
In words: differential scanning fluorimetry. It counts as binding. (In general: Differential scanning fluorimetry follows unfolding on heating by fluorescence.)

Assay [2] has as its target Drosophila melanogaster photoreceptor retinol dehydrogenase (PDH) isoform C (Drosophila melanogaster). Briefly: crystal structure.

For `NC(=O)c1ccc[n+]([C@@H]2O[C@H](COP(=O)([O-])OP(=O)(O)OC[C@H]3O[C@@H](n4cnc5c(N)ncnc54)[C@H](O)[C@@H]3O)[C@@H](O)[C@H]2O)c1` [NAD^+], binding in assay [1] was put at a Kd of 170 ± 30 µM. Turning to “Drosophila melanogaster photoreceptor retinol dehydrogenase (PDH) isoform C (enzyme)”, in assay [2], the stoichiometry N (in general, the number of molecules, sites or subunits per partner or assembly) came to 2.
